From patent US20160145223A1, “Bicyclyl-Substituted Isothiazoline Compounds” (BASF SE, priority 2013, published 2016)

Key:
Type in all cases: in vivo
[1] = system: Green Peach Aphid (Myzus persicae); experiment: Green peach aphid artificial diet test, systemic (B.2); details: 72 h, adult aphids on treated artificial diet, 3 days, in comparison with untreated controls
Description: For evaluating control of green peach aphid (Myzus persicae) through systemic means the test unit consisted of 96-well-microtiter plates containing liquid artificial diet under an artificial membrane.
The compounds were formulated using a solution containing 75% v/v water and 25% v/v DMSO. Different concentrations of formulated compounds were pipetted into the aphid diet, using a custom built pipetter, at two replications.
After application, 5-8 adult aphids were placed on the artificial membrane inside the microtiter plate wells. The aphids were then allowed to suck on the treated aphid diet and incubated at about 23±1° C. and about 50±5% relative humidity for 3 days. Aphid mortality and fecundity was then visually assessed.

[2] = system: Tobacco Budworm (Heliothis virescens); experiment: Tobacco budworm insect diet test (B.4); details: 120 h, egg and larval mortality, 5 days, in comparison with untreated controls
Description: For evaluating control of tobacco budworm (Heliothis virescens) the test unit consisted of 96-well-microtiter plates containing an insect diet and 15-25 H. virescens eggs.
The compounds were formulated using a solution containing 75% v/v water and 25% v/v DMSO. Different concentrations of formulated compounds were sprayed onto the insect diet at 10 μl, using a custom built micro atomizer, at two replications.
(§1) After application, microtiter plates were incubated at about 28±1° C. and about 80±5% relative humidity for 5 days. Egg and larval mortality was then visually assessed.

[3] = system: Boll Weevil (Anthonomus grandis); experiment: Boll weevil insect diet test (B.5); details: 120 h, egg and larval mortality, 5 days, in comparison with untreated controls
Description: For evaluating control of boll weevil (Anthonomus grandis) the test unit consisted of 96-well-microtiter plates containing an insect diet and 5-10 A. grandis eggs.
(§2) The compounds were formulated using a solution containing 75% v/v water and 25% v/v DMSO. Different concentrations of formulated compounds were sprayed onto the insect diet at 5 μl, using a custom built micro atomizer, at two replications.
After application, microtiter plates were incubated at about 25±1° C. and about 75±5% relative humidity for 5 days. Egg and larval mortality was then visually assessed.

[4] = system: Red Spider Mite (Tetranychus kanzawai); experiment: Red spider mite cowpea spray test (B.9); details: mites on sprayed cowpea beans, 72 hours after treatment, in comparison with untreated controls
Description: The active compound was dissolved at the desired concentration in a mixture of 1:1 (vol:vol) distilled water:acetone. Add surfactant (Kinetic HV) was added at a rate of 0.01% (vol/vol). The test solution was prepared at the day of use.
Potted cowpea beans of 4-5 days of age were cleaned with tap water and sprayed with 1-2 ml of the test solution using air driven hand atomizer. The treated plants were allowed to air dry and afterwards inoculated with 30 or more mites by clipping a cassava leaf section from rearing population. Treated plants were placed inside a holding room at about 25-27° C. and about 50-60% relative humidity. Percent mortality was assessed 72 hours after treatment.

[5] = system: Vetch Aphid (Megoura viciae); experiment: Vetch aphid broad bean leaf disk test (B.3); details: foliar, 120 h, adult aphids on sprayed leaf disks, 5 days, in comparison with untreated controls
Description: For evaluating control of vetch aphid (Megoura viciae) through contact or systemic means the test unit consisted of 24-well-microtiter plates containing broad bean leaf disks.
The compounds were formulated using a solution containing 75% v/v water and 25% v/v DMSO. Different concentrations of formulated compounds were sprayed onto the leaf disks at 2.5 μl, using a custom built micro atomizer, at two replications.
After application, the leaf disks were air-dried and 5-8 adult aphids placed on the leaf disks inside the microtiter plate wells. The aphids were then allowed to suck on the treated leaf disks and incubated at about 23±1° C. and about 50±5% relative humidity for 5 days. Aphid mortality and fecundity was then visually assessed.

[6] = system: Mediterranean Fruitfly (Ceratitis capitata); experiment: Mediterranean fruitfly insect diet test (B.6); details: 120 h, egg and larval mortality, 5 days, in comparison with untreated controls
Description: as §2, with “For evaluating control of Mediterranean fruitfly (Ceratitis capitata) the test unit consisted of microtiter plates containing an insect diet and 50-80 C. capitata eggs. The” for “The”
as §1

[7] = system: Diamond Back Moth (Plutella xylostella); experiment: Diamond back moth leaf-dip test (B.1); details: 3rd instar larvae on dipped cabbage leaves, 72 hours after treatment, in comparison with untreated controls
Description: The active compound was dissolved at the desired concentration in a mixture of 1:1 (vol:vol) distilled water:aceteone. Surfactant (Kinetic HV) was added at a rate of 0.01% (vol/vol). The test solution was prepared at the day of use.
Leaves of cabbage were dipped in test solution and air-dried. Treated leaves were placed in petri dishes lined with moist filter paper and inoculated with ten 3rd instar larvae. Mortality was recorded 72 hours after treatment. Feeding damages were also recorded using a scale of 0-100%.

[8] = system: Rice green leafhopper (Nephotettix virescens); experiment: Rice green leafhopper rice seedling spray test (B.8); details: adults on sprayed rice seedlings, after 72 hours, in comparison with untreated controls
Description: Rice seedlings were cleaned and washed 24 hours before spraying. The active compounds were formulated in 1:1 acetone:water (vol:vol), and 0.01% vol/vol surfactant (Kinetic HV) was added. Potted rice seedlings were sprayed with 5-6 ml test solution, air dried, covered with Mylar cages cages and inoculated with 10 adults. Treated rice plants were kept at about 28-29° C. and relative humidity of about 50-60%. Percent mortality was recorded after 72 hours.

[9] = system: Orchid Thrips (Dichromothrips corbetti); experiment: Orchid thrips floral-immersion test (B.7); details: adult thrips on dipped orchid petals, 72 hours after treatment, in comparison with untreated controls
Description: Dichromothrips corbetti adults used for bioassay were obtained from a colony maintained continuously under laboratory conditions. For testing purposes, the test compound is diluted in a 1:1 mixture of acetone:water (vol:vol), plus Kinetic HV at a rate of 0.01% v/v.
Thrips potency of each compound was evaluated by using a floral-immersion technique. All petals of individual, intact orchid flowers were dipped into treatment solution and allowed to dry in Petri dishes. Treated petals were placed into individual re-sealable plastic along with about 20 adult thrips. All test arenas were held under continuous light and a temperature of about 28° C. for duration of the assay. After 3 days, the numbers of live thrips were counted on each petal. The percent mortality was recorded 72 hours after treatment.

O=C(O)c1ccc(C2=NSC(c3cc(Cl)c(F)c(Cl)c3)(C(F)(F)F)C2)c2c1CCC2 (centres unmarked) [Compound 1-1, 7-[5-(3,5-Dichloro-4-fluoro-phenyl)-5-(trifluoromethyl)-4H-isothiazol-3-yl]indane-4-carboxylic acid]
≥ 75%: mortality at 2500 ppm [1] | mortality at 2500 ppm [2] | mortality at 2500 ppm [3]

O=C(NCC(F)(F)F)c1ccc(C2=NSC(c3cc(Cl)c(F)c(Cl)c3)(C(F)(F)F)C2)c2c1CCC2 (centres unmarked) [Compound 1-7, 7-[5-(3,5-Dichloro-4-fluoro-phenyl)-5-(trifluoromethyl)-4H-isothiazol-3-yl]-N-(2,2,2-trifluoroethyl)indane-4-carboxamide]
≥ 75%: mortality at 2500 ppm [1] | mortality at 500 ppm [4] | mortality at 2500 ppm [5] | mortality at 2500 ppm [6] | mortality at 500 ppm [7] | mortality at 2500 ppm [2] | mortality at 500 ppm [8] | mortality at 2500 ppm [3] | mortality at 500 ppm [9]

COC(=O)c1ccc(C2=NSC(c3cc(Cl)c(F)c(Cl)c3)(C(F)(F)F)C2)c2c1CCCC2 (centres unmarked) [Compound 2-1, Methyl 8-[5-(3,5-dichloro-4-fluoro-phenyl)-5-(trifluoromethyl)-4H-isothiazol-3-yl]tetralin-5-carboxylate]
≥ 75%: mortality at 2500 ppm [6] | mortality at 2500 ppm [2] | mortality at 2500 ppm [3]

O=C(O)c1ccc(C2=NSC(c3cc(Cl)c(F)c(Cl)c3)(C(F)(F)F)C2)c2c1CCCC2 (centres unmarked) [Compound 2-2, 8-[5-(3,5-Dichloro-4-fluoro-phenyl)-5-(trifluoromethyl)-4H-isothiazol-3-yl]tetralin-5-carboxylic acid]
≥ 75%: mortality at 2500 ppm [6] | mortality at 2500 ppm [2] | mortality at 2500 ppm [3]

O=C(NCc1ncccn1)c1ccc(C2=NSC(c3cc(Cl)c(F)c(Cl)c3)(C(F)(F)F)C2)c2c1CCCC2 (centres unmarked) [Compound 2-6, 8-[5-(3,5-Dichloro-4-fluoro-phenyl)-5-(trifluoromethyl)-4H-isothiazol-3-yl]-N-(pyrimidin-2-ylmethyl)tetralin-5-carboxamide]
≥ 75%: mortality at 2500 ppm [1] | mortality at 2500 ppm [5] | mortality at 2500 ppm [6] | mortality at 2500 ppm [2] | mortality at 2500 ppm [3]
